Results reported in patent US11179412B2, “Methods of treating conditions involving elevated inflammatory response” (University of Pittsburgh—Of the Commonwealth System of …, priority 2017, dated 2021).
“Also recorded” adds a separate entry of the source.

Tests used:
pPMs = test: Cell viability assay (CCK-8), pPMs; type: cell-based, mouse; conditions: 3′3′-cGAMP 10 μg/ml, ALK inhibitor 10 μM, 16 hours
Protocol: (§1) Cells were seeded into 96-well plates and incubated with the indicated treatments. Subsequently, 100 μl fresh medium was added to cells containing 10 μl Cell Counting Kit-8 (CCK-8) solutions (Dojindo Laboratories) and incubated for 1 h (37° C., 5% CO2). Absorbance at 450 nm was measured using a microplate reader (Tecan).

[1] = system: CLP-induced polymicrobial sepsis in C57BL/6J mice; test: CLP model of polymicrobial sepsis; type: in vivo, mouse
Protocol: sepsis was induced in male or female C57BL/6J mice (eight- to 10-weeks old, 22 to 26 g) using a surgical procedure as previously described (68). Briefly, anesthesia was induced with ketamine (80-100 mg/kg/i.p.) and xylazine (10-12.5 mg/kg/i.p.). A small midline abdominal incision was made and the cecum was exteriorized and ligated with 4-0 silk immediately distal to the ileocecal valve without causing intestinal obstruction. The cecum was then punctured twice with a 17-27-gauge needle. The abdomen was closed in two layers and mice were injected subcutaneously with 1 ml Ringer's solution including analgesia (0.05 mg/kg buprenorphine). […]
Biochemical measurements of tissue enzymes (CK, AMYL, BUN, and ALT) in serum were performed using the IDEXX Catalyst Dx Chemistry Analyzer according to the manufacturer's protocol.
Tissues were embedded in optimum cutting temperature cryomedium (Sakura Finetek, Zoeterwoude, the Netherlands) and cut into 4 μm sections. The deparaffinized sections were then stained using the standard H&E method. The stained slides were observed using an EVOS FL Auto Cell Imaging System (Invitrogen), five fields per section and three sections per sample.

RAW264.7 cells = test: Cell viability assay (CCK-8), RAW264.7; type: cell-based, mouse; conditions: 3′3′-cGAMP 10 μg/ml, ALK inhibitor 10 μM, 16 hours
Protocol: as §1

iBMDMs = test: Cell viability assay (CCK-8), iBMDMs; type: cell-based, mouse; conditions: 3′3′-cGAMP 10 μg/ml, ALK inhibitor 10 μM, 16 hours
Protocol: as §1

[2] = system: STING signaling (TBK1, IRF3, p65, ALK, EGFR, AKT phosphorylation) in iBMDMs; test: Western blot of STING pathway protein phosphorylation, iBMDMs; type: cell-based, mouse
Protocol: For immunoblotting, cells were lysed in Cell Lysis Buffer (#9803, Cell Signaling Technology) with protease inhibitor cocktail (Promega), phosphatase inhibitor cocktail (Sigma), and 1 mM Na3VO4 (70). Cleared lysates were resolved by SDS-PAGE (#3450124, Bio-Rad) and then transferred onto PVDF membranes (#1704273, Bio-Rad). The membranes were blocked with Tris-buffered saline Tween 20 (TBST) containing 5% skim milk for 1 h at room temperature and then incubated with the indicated primary antibodies (1:1000-1:5000) overnight at 4° C. After being washed with TBST, the membranes were incubated with an HRP-linked anti-mouse IgG secondary antibody (#7076, Cell Signaling Technology) or HRP-linked anti-rabbit IgG secondary antibody (#7074, Cell Signaling Technology) for 1 h at room temperature. The membranes were washed three times in TBST and then visualized and analyzed with a ChemiDoc Touch Imaging System (#1708370, Bio-Rad). The intensities of bands were analyzed with Image Lab software.

[3] = system: STING activation (IFNβ release) in pPBMCs; test: IFNβ release ELISA, primary peripheral blood mononuclear cells (pPBMCs); type: cell-based; conditions: human pPBMCs; 3′3′-cGAMP 10 μg/ml, 16 hours; compound 10 μM
Protocol: (§2) Macrophages or monocytes were treated with 3′3′-cGAMP (10 μg/ml, Invitrogen) for 16 hours in the absence or presence of one compound (10 μM) from the Target-selective Inhibitory Library (#L3500, Selleck Chemicals). Commercially available enzyme-linked immunosorbent assay (ELISA) kits were used to measure the concentrations of mouse IFNβ (Thermo Fisher Scientific) or human IFNβ (Thermo Fisher Scientific) in culture medium according to the manufacturer's instructions.

IFNβ mRNA in pPMs = test: IFNβ mRNA Q-PCR, pPMs; type: cell-based, mouse; conditions: STING ligands 10 μg/ml, inhibitor 10 μM, 16 hours
Protocol: Total RNA was extracted using QIAGEN RNeasy Plus Kit according to the manufacturer's instructions. First-strand cDNA was synthesized from 1 μg of RNA using the iScript cDNA Synthesis kit (#1708890, Bio-Rad). Briefly, 20 μl reactions were prepared by combining 4 μl iScript Select reaction mix, 2 μl gene-specific enhancer solution, 1 μl reverse transcriptase, 1 μl gene-specific assay pool (20×, 2 μM), and 12 μl RNA diluted in RNase-free water. Quantitative real-time PCR was carried out using synthesized cDNA, primers, and SsoFast EvaGreen Supermix (#172-5204, Bio-Rad). The expression of target genes was calculated using the ddCt method relative to the expression of a house-keeping gene, β-actin. Data shown are the relative quantity (RQ), with RQ of the control cells set to one.

[4] = system: STING activation (IFNβ release) in pPMs; test: IFNβ release ELISA, primary peritoneal macrophages (pPMs); type: cell-based, mouse; conditions: 16 hours
Protocol: Mouse pPMs were isolated from C57BL/6J mice as previously described (69). In brief, eight-week-old female or male C57BL/6J mice were injected with 3.0% thioglycollate medium (2 mL/mouse) into the peritoneum. Three days after injection, mice were sacrificed and injected with 3 mL of 0.05% EDTA-PBS into the peritoneum to harvest peritoneal macrophages. Collected cells were centrifuged at 1000 rpm for 5 min at 4° C., and the cell pellet was washed with PBS and centrifuged again. The cell pellet was then suspended in Dulbecco's Modified Eagle Medium supplemented with 10% FBS and 1× Penicillin-Streptomycin and cultured in a culture dish.
as §2

Cc1cc(Nc2ncc(Cl)c(Nc3ccccc3S(=O)(=O)C(C)C)n2)c(OC(C)C)cc1C1CCNCC1 [LDK378, 5-chloro-N^2-(2-isopropoxy-5-methyl-4-(piperidin-4-yl)phenyl)-N^4-[2-(propane-2-sulfonyl)-phenyl]-pyrimidine-2,4-diamine]
cell viability (pPMs): did not affect cell viability | CLP-induced lethality (animal death) ([1]; B6 mice, CLP 22-gauge needle, LDK378 20 mg/kg, intraperitoneally (i.p.), 2, 24, 48, and 72 hours after CLP, 20 mg/kg): conferred protection against lethality; also recorded: conferred significant protection; also recorded: prevented | protection of STING-deficient mice in high-grade sepsis ([1]; CLP 17 G needle, STING-deficient mice): conferred further protection | organ dysfunction by serum tissue enzymes (CK, AMYL, BUN, ALT) ([1]; CLP 22-gauge needle, LDK378 20 mg/kg, day 2-7): protective effects | CLP-induced TNFα, IFNβ, MCP1, and IL-7 mRNA expression ([1]; CLP 22-gauge needle, LDK378 20 mg/kg, day 3): reduced | CLP-induced tissue injury (H&E; lung, small intestine, other tissues) ([1]; CLP 22-gauge needle, LDK378 20 mg/kg, day 3, 20 mg/kg): reduced injury; also recorded: prevented | top five downregulated circulating immune chemical mediators compared with control group ([1]; CLP 22-gauge needle, serum, day 3): IL-10, serpin E1, serpin F1, TIM-1, and CXCL2 | animal survival in low-, middle-, and high-grade sepsis models ([1]; CLP with 27 G, 22 G, 17 G needles, B6 mice): prolonged animal survival | CLP-induced cytokine systemic release and accumulation in the serum ([1]; serum antibody array, CLP 22-gauge needle, LDK378 20 mg/kg, day 3): reduced | cell viability (RAW264.7 cells): did not affect cell viability | cell viability (iBMDMs): did not affect cell viability | 3′3′-cGAMP-induced p-TBK1 ([2]; 3′3′-cGAMP 10 μg/ml, 10 μM, three to 16 hours): time-dependently reduced | STING ligand-induced phosphorylation of TBK1, IRF3, and p65 ([2]; 3′3′-cGAMP or c-di-AMP 10 μg/ml, 16 hours, 10 μM): diminished | LPS-induced phosphorylation of TBK1, IRF3, and p65 ([2]; LPS 1 μg/ml, LDK378 10 μM, three hours): inhibited | 3′3′-cGAMP-, c-di-AMP-, and DMXAA-induced p-IRF3 and p-p65 ([2]; ligand 10 μg/ml, 10 μM): inhibited | c-di-AMP- or DMXAA-induced p-TBK1 ([2]; ligand 10 μg/ml, 10 μM, 16 hours): inhibited | 3′3′-cGAMP- or c-di-AMP-induced phosphorylation of ALK, EGFR, and AKT ([2]; ligand 10 μg/ml, 16 hours, 10 μM): attenuated | 3′3′-cGAMP-induced IFNβ release [3]: confirmed their inhibitory properties | STING ligand-induced IFNβ mRNA expression (IFNβ mRNA in pPMs): attenuation | 3′3′-cGAMP-induced IFNβ release ([4]; mouse pPMs, 3′3′-cGAMP 10 μg/ml, compound 10 μM): confirmed their inhibitory properties | IFNβ release induced by STING ligands ([4]; pPMs, STING ligands 10 μg/ml, inhibitor 10 μM): inhibited
